Measurements as given in paper PMC6321301, “Phenolic Composition, Antioxidant Properties, and Inhibition toward Digestive Enzymes with Molecular Docking Analysis of Different Fractions from Prinsepia utilis Royle Fruits” (Molecules, 2018).
Read-outs that look alike come from different tables or passages of the source. One block for each compound: values may come before it.

Assays:
α-glucosidase = details: cited from earlier work
[1] = biological target: T1, porcine pancreatic lipase (Sus scrofa, UniProt P00591); experiment: Pancreatic lipase inhibition; format: biochemical; details: mean ± SD, n = 3
T1 construct: purchased Sigma (Sigma-Aldrich, Shanghai, China); host or cells: porcine pancreas (natural source)
T1 sequence (P00591 1-450): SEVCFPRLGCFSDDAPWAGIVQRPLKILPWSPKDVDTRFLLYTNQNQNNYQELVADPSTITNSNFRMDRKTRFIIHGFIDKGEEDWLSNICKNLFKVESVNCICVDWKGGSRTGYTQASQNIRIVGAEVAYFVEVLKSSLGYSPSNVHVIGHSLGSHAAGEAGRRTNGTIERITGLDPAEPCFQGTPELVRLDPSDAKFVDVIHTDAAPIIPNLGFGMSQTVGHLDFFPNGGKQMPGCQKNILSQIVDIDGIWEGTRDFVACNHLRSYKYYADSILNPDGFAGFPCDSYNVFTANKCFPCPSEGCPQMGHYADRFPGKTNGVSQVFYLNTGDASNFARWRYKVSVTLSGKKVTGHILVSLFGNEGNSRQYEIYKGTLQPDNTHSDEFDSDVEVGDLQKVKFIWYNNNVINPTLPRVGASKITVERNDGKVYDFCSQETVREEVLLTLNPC
Procedure: (§1) Methanol, acetonitrile, formic acid, and Folin–Ciocalteu reagent were purchased from Merck (Darmstadt, Germany). […] All of the other reagents that were used were of analytical grade.
The inhibitory effects of different fractions from P. utilis fruits, rutin, isorhamnetin-3-O-glucoside, and cyanidin-3-O-glucoside against pancreatic lipase activity were measured according to the method reported earlier. The absorbance (OD) was measured at 400 nm by using a SpectraMax M5 microplate reader. Each test was measured three times.

[2] = biological target: T2, α-glucosidase from Saccharomyces cerevisiae (Saccharomyces cerevisiae, UniProt P53341); experiment: α-Glucosidase inhibition; format: biochemical
T2 construct: purchased Sigma (Sigma-Aldrich, Shanghai, China); host or cells: Saccharomyces cerevisiae (natural source, as named)
T2 sequence (P53341 whole entry): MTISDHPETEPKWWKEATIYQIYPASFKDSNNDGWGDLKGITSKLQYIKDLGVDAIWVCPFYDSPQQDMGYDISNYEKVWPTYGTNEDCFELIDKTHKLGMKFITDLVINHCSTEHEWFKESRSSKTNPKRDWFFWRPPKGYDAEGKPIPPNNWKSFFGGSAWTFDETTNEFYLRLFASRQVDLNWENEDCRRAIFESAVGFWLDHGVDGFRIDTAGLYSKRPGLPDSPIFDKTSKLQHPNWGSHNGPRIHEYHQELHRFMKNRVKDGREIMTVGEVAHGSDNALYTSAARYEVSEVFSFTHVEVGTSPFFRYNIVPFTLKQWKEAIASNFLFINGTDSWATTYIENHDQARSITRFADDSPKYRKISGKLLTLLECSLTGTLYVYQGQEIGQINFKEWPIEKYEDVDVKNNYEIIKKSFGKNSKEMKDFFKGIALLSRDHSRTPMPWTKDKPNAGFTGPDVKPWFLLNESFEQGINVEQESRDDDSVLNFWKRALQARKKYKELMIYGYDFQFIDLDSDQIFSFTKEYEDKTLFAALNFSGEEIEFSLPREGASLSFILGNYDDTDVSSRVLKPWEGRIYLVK
Procedure: as §1
The α-glucosidase inhibition activities of different fractions from P. utilis fruits, rutin, and isorhamnetin-3-O-glucoside were evaluated as previously described with some modifications. The absorbance (OD) of the each reaction mixture at 405 nm was recorded by using a SpectraMax M5 microplate reader (Molecular Device, Sunnyvale, CA, USA).

[3] = DPPH radical scavenging assay; details: mean ± SD, n = 3
Procedure: The current result was consistent with many previous studies. Huang et al. reported that the phenolic compounds in P. utilis seeds were responsible for their DPPH radical scavenging activities, regardless of different pretreatments. Zhang et al. also considered phenolics to be the main bioactive substances in Rhus chinensis Mill. fruits to scavenge DPPH radicals.
The antioxidant activities of all of the fractions from P. utilis fruits were determined by DPPH assay according to the methods described earlier. The absorbance of the reaction mixture was recorded by a SpectraMax M5 microplate reader (Molecular Device, Sunnyvale, CA, USA) at 517 nm. The DPPH radical scavenging activity (%) was calculated as [(ODcontrol − ODsample)/ODcontrol] × 100. Each test was measured in triplicate.

[4] = ABTS radical scavenging assay; details: mean ± SD, n = 3
Excerpt: Phenolic compounds in P. utilis fruits may be also in charge of the ABTS scavenging capacities, which were confirmed by a high Pearson’s correlation coefficient between the phenolic contents and ABTS radical scavenging ratio (r = 0.889, p < 0.01). Some discrepancies between the IC50 values of DPPH and ABTS assays of the same fraction from P. utilis fruits were observed, which may be due to the different radical structure. Many previous studies also found a similar phenomenon when the DPPH results were compared with the ABTS findings.
The antioxidant activities of all of the fractions from P. utilis fruits were measured by ABTS assay as described earlier. The absorbance of the reaction mixture was determined with a SpectraMax M5 microplate reader at 745 nm. The ABTS radical scavenging activity (%) of each sample was calculated as [(ODcontrol − ODsample)/ODcontrol] × 100. Each test was measured three times.

H2O2-induced HepG2 cells = experiment: Inhibition of intracellular ROS in H2O2-induced HepG2 cells (DCFH-DA, flow cytometry); format: cell-based; details: 8.0 μg/mL, positive control; p < 0.05
Procedure: HepG2 cells were supplied by Kunming cell bank, Chinese Academy of Sciences (Kunming, China), which were cultured in normal Dulbecco’s Modified Eagle Medium (DMEM) medium containing 10% fetal bovine serum (FBS), 1% antibiotic mixture of streptomycin (100 mg/mL) and penicillin (100 U/mL) at 37 °C with a humidified 5% CO2 atmosphere. […] Briefly, cells were seeded on six-well plates at 2.0 × 10^5 cells per well, and incubated for 24 h. […] Then, cells were harvested and washed twice with phosphate buffer solution (PBS). The cells of all of the groups were incubated with 10 μM of DCFH-DA for 20 min, and washed with serum-free medium to remove excess DCFH-DA by centrifuging at 156× g for five minutes. Subsequently, the intracellular ROS of each group was measured by flow cytometry with guava® easyCyte 6-2L (Millipore, Billerica, MA, USA) within 45 min. All of the experiments were measured in triplicate.

[5] = cited from earlier work
[6] = cited from earlier work; remark: listed apart in the source

Compound: O=C(O[C@@H]1Cc2c(O)cc(O)cc2O[C@H]1c1cc(O)c(O)c(O)c1)c1cc(O)c(O)c(O)c1 [gallocatechin gallate]
- manner of α-glucosidase inhibition (α-glucosidase): noncompetitive
- α-glucosidase inhibition IC50 (α-glucosidase): 30.02 µg/mL

Compound: COc1cc(-c2oc3cc(O)cc(O)c3c(=O)c2O[C@@H]2O[C@H](CO[C@@H]3O[C@@H](C)[C@H](O)[C@@H](O)[C@H]3O)[C@@H](O)[C@H](O)[C@H]2O)ccc1O [Isorhamnetin-3-O-rutinoside]
- pancreatic lipase inhibition IC50 [1]: 237.87 ± 8.20 µg/mL
- α-glucosidase inhibition IC50 ([2]; mean ± SD, n = 3): 90.19 ± 3.27 µg/mL

Compound: O=C(CCc1ccc(O)cc1)c1c(O)cc(O)cc1O [phloretin]
- α-glucosidase inhibition IC50 (α-glucosidase): 31.26 µg/mL
- manner of α-glucosidase inhibition (α-glucosidase; reversible): mixed-type

- DPPH radical scavenging IC50 [3]: 2.32 ± 0.11 µg/mL
- ABTS radical scavenging IC50 [4]: 1.92 ± 0.21 µg/mL
Compound: O=C1O[C@H]([C@@H](O)CO)C(O)=C1O [Vc, ascorbic acid]
- intracellular ROS generation (H2O2-induced HepG2 cells): significantly inhibited intracellular ROS generation

- pancreatic lipase inhibition IC50 [1]: 249.20 ± 3.87 µg/mL
Compound: OC[C@H]1O[C@@H](Oc2cc3c(O)cc(O)cc3[o+]c2-c2ccc(O)c(O)c2)[C@H](O)[C@@H](O)[C@@H]1O [Cyanidin-3-O-glucoside]

Compound: C[C@@H]1O[C@@H](OC[C@H]2O[C@@H](Oc3c(-c4ccc(O)c(O)c4)oc4cc(O)cc(O)c4c3=O)[C@H](O)[C@@H](O)[C@@H]2O)[C@H](O)[C@H](O)[C@H]1O [Rutin]
- IC50 [1]: 289 µM
- DPPH radical scavenging IC50 [5]: 29.63 µg/mL
- IC50 [2]: 208 µM
- ABTS radical scavenging IC50 [6]: 5.34 µg/mL
